Columns and labels:
Assay in all cases: cells
RERF-LC-MS = format: functional, cell-based, Homo sapiens; conditions: Homo sapiens, RERF-LC-MS;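 note: growth inhibition of human RERF-LC-MS cells, read out by a cell viability assay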
Description: SANGER: Inhibition of human RERF-LC-MS cell growth in a cell viability assay.

Daoy = format: functional, cell-based, Homo sapiens; conditions: Homo sapiens, Daoy;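 note: daoy cell growth inhibition, read out as cell viability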
Description: SANGER: Inhibition of human Daoy cell growth in a cell viability assay.

LB2241-RCC = format: functional, cell-based, Homo sapiens; conditions: Homo sapiens, LB2241-RCC;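 note: cell viability assay measuring how strongly the cultured human renal carcinoma line is prevented from growing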
Description: SANGER: Inhibition of human LB2241-RCC cell growth in a cell viability assay.

EFM-19 = format: functional, cell-based, Homo sapiens; conditions: Homo sapiens, EFM-19;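 note: growth inhibition of human EFM-19 cells, measured in a cell viability assay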
Description: SANGER: Inhibition of human EFM-19 cell growth in a cell viability assay.

L-428 = format: functional, cell-based; conditions: Homo sapiens
Description: SANGER: Inhibition of human L-428 cell growth in a cell viability assay.

LB996-RCC = format: functional, cell-based; conditions: Homo sapiens
Description: SANGER: Inhibition of human LB996-RCC cell growth in a cell viability assay.

KM-H2 = format: functional, cell-based; conditions: Homo sapiens;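 note: growth inhibition of KM-H2 cells, read out by a cell viability assay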
Description: SANGER: Inhibition of human KM-H2 cell growth in a cell viability assay.

MDA-MB-361 = format: functional, cell-based, Homo sapiens; conditions: Homo sapiens, MDA-MB-361
EGI-1 = format: functional, cell-based, Homo sapiens; conditions: Homo sapiens, EGI-1;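 note: cell viability readout used to gauge growth inhibition of EGI-1 cells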
Description: SANGER: Inhibition of human EGI-1 cell growth in a cell viability assay.

KYSE-140 = format: functional, cell-based, Homo sapiens; conditions: Homo sapiens, KYSE-140;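 note: cell viability assay measuring growth inhibition in human KYSE-140 cells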
Description: SANGER: Inhibition of human KYSE-140 cell growth in a cell viability assay.

OE33 = format: functional, cell-based, Homo sapiens; conditions: Homo sapiens, OE33;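 note: growth inhibition of human OE33 cells, measured by a cell viability assay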
Description: SANGER: Inhibition of human OE33 cell growth in a cell viability assay.

NCI-H1993 = format: functional, cell-based, Homo sapiens; conditions: Homo sapiens, NCI-H1993;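 note: growth inhibition of the cancer cell line, assessed with a cell viability assay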
Description: SANGER: Inhibition of human NCI-H1993 cell growth in a cell viability assay.

BFTC-909 = format: functional, cell-based, Homo sapiens; conditions: Homo sapiens, BFTC-909
Description: SANGER: Inhibition of human BFTC-909 cell growth in a cell viability assay.

NCI-H1304 = format: functional, cell-based; conditions: Homo sapiens;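 note: growth inhibition of the cancer cell line, measured in a cell viability assay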
Description: SANGER: Inhibition of human NCI-H1304 cell growth in a cell viability assay.

HLE = format: functional, cell-based, Homo sapiens; conditions: Homo sapiens, HLE;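 note: growth inhibition of human HLE cells, read out by a cell viability assay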
Description: SANGER: Inhibition of human HLE cell growth in a cell viability assay.

MMAC-SF = format: functional, cell-based, Homo sapiens; conditions: Homo sapiens, MMAC-SF;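 note: growth inhibition of human MMAC-SF cells, read out with a cell viability assay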
Description: SANGER: Inhibition of human MMAC-SF cell growth in a cell viability assay.

RD = format: functional, cell-based, Homo sapiens; conditions: Homo sapiens, RD
Description: SANGER: Inhibition of human RD cell growth in a cell viability assay.

KP-4 = format: functional, cell-based, Homo sapiens; conditions: Homo sapiens, KP-4; read-out: IC50;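 note: human KP-4 cells, with growth inhibition read out through a cell viability assay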
Description: SANGER: Inhibition of human KP-4 cell growth in a cell viability assay.

ESS-1 = format: functional, cell-based, Homo sapiens; conditions: Homo sapiens, ESS-1;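 note: growth inhibition of human ESS-1 cells, read out by a cell viability assay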
Description: SANGER: Inhibition of human ESS-1 cell growth in a cell viability assay.

HGC-27 = format: functional, cell-based, Homo sapiens; conditions: Homo sapiens, HGC-27;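 note: growth inhibition of human HGC-27 cells, read out in a cell viability assay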
Description: SANGER: Inhibition of human HGC-27 cell growth in a cell viability assay.

ATN-1 = format: functional, cell-based; conditions: Homo sapiens;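 note: growth inhibition of human ATN-1 cells, read out with a cell viability assay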
Description: SANGER: Inhibition of human ATN-1 cell growth in a cell viability assay.

K5 = format: functional, cell-based, Homo sapiens; conditions: Homo sapiens, K5
Description: SANGER: Inhibition of human K5 cell growth in a cell viability assay.

MKN-45 = format: functional, cell-based, Homo sapiens; conditions: Homo sapiens, MKN-45;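 note: growth inhibition of human MKN-45 cells, measured with a cell viability assay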
EKVX = format: functional, cell-based, Homo sapiens; conditions: Homo sapiens, EKVX;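 note: growth inhibition of human EKVX cells, read out with a cell viability assay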
Description: SANGER: Inhibition of human EKVX cell growth in a cell viability assay.

RCM-1 = format: functional, cell-based, Homo sapiens; conditions: Homo sapiens, RCM-1;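 note: growth inhibition of the RCM-1 line, determined with a cell viability readout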
Description: SANGER: Inhibition of human RCM-1 cell growth in a cell viability assay.

SW13 = format: functional, cell-based, Homo sapiens; conditions: Homo sapiens, SW13;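 note: IC50 is inhibition of SW13 cell growth, read out with a cell viability assay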
Description: SANGER: Inhibition of human SW13 cell growth in a cell viability assay.

IST-MES1 = format: functional, cell-based, Homo sapiens; conditions: Homo sapiens, IST-MES1;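 note: growth inhibition of IST-MES1 cells, measured with a cell viability assay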
Description: SANGER: Inhibition of human IST-MES1 cell growth in a cell viability assay.

SNB-75 = format: functional, cell-based, Homo sapiens; conditions: Homo sapiens, SNB-75;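 note: cell viability assay measuring growth inhibition of human SNB-75 cells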
Description: SANGER: Inhibition of human SNB75 cell growth in a cell viability assay.

NUGC-3 = format: functional, cell-based, Homo sapiens; conditions: Homo sapiens, NUGC-3;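 note: growth inhibition of human NUGC-3 cells, read out with a cell viability assay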
Description: SANGER: Inhibition of human NUGC-3 cell growth in a cell viability assay.

DK-MG = format: functional, cell-based, Homo sapiens; conditions: Homo sapiens, DK-MG;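 note: growth inhibition of DK-MG cells, read out with a cell viability assay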
Description: SANGER: Inhibition of human DK-MG cell growth in a cell viability assay.

DMS-114 = format: functional, cell-based, Homo sapiens; conditions: Homo sapiens, DMS-114
LB373-MEL-D = format: functional, cell-based, Homo sapiens; conditions: Homo sapiens, LB373-MEL-D;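 note: growth inhibition of the cell line, read out in a cell viability assay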
Description: SANGER: Inhibition of human LB373-MEL-D cell growth in a cell viability assay.

HT-1080 = format: functional, cell-based, Homo sapiens; conditions: Homo sapiens, HT-1080
Description: SANGER: Inhibition of human HT-1080 cell growth in a cell viability assay.

RCC10RGB = format: functional, cell-based, Homo sapiens; conditions: Homo sapiens, RCC10RGB;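 note: growth inhibition of human RCC10RGB cells, read out by a cell viability assay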
Description: SANGER: Inhibition of human RCC10RGB cell growth in a cell viability assay.

MFH-ino = format: functional, cell-based; conditions: Homo sapiens;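 note: growth inhibition of human MFH-ino cells, read out by a cell viability assay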
Description: SANGER: Inhibition of human MFH-ino cell growth in a cell viability assay.

JEG-3 = format: functional, cell-based, Homo sapiens; conditions: Homo sapiens, JEG-3;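 note: growth inhibition of human JEG-3 cells, read out with a cell viability assay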
Description: SANGER: Inhibition of human JEG-3 cell growth in a cell viability assay.

SW48 = format: functional, cell-based, Homo sapiens; conditions: Homo sapiens, SW48;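 note: growth inhibition of SW48 cells, read out with a cell viability assay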
Description: SANGER: Inhibition of human SW48 cell growth in a cell viability assay.

NCI-H2405 = format: functional, cell-based, Homo sapiens; conditions: Homo sapiens, NCI-H2405;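 note: growth inhibition of the human cell line, read out with a cell viability assay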
Description: SANGER: Inhibition of human NCI-H2405 cell growth in a cell viability assay.

LS-411N = format: functional, cell-based, Homo sapiens; conditions: Homo sapiens, LS-411N
Mo = format: functional, cell-based; conditions: Homo sapiens
Description: SANGER: Inhibition of human Mo-T cell growth in a cell viability assay.

C32 = format: functional, cell-based, Homo sapiens; conditions: Homo sapiens, C32;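 note: cell viability assay, with IC50 reflecting inhibition of C32 cell growth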
Description: SANGER: Inhibition of human C32 cell growth in a cell viability assay.

CW-2 = format: functional, cell-based, Homo sapiens; conditions: Homo sapiens, CW-2;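 note: growth inhibition of CW-2 cells, read out by a cell viability assay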
Description: SANGER: Inhibition of human CW-2 cell growth in a cell viability assay.

SW1088 = format: functional, cell-based, Homo sapiens; conditions: Homo sapiens, SW1088;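 note: growth inhibition of human SW1088 cells, read out by a cell viability assay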
Description: SANGER: Inhibition of human SW1088 cell growth in a cell viability assay.

IA-LM = format: functional, cell-based, Homo sapiens; conditions: Homo sapiens, IA-LM;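 note: cell viability assay measuring growth inhibition of human IA-LM cells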
Description: SANGER: Inhibition of human IA-LM cell growth in a cell viability assay.

KG-1 = format: functional, cell-based; conditions: Homo sapiens;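 note: growth inhibition of KG-1 cells, read out by a cell viability assay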
D-392MG = format: functional, cell-based, Homo sapiens; conditions: Homo sapiens, D-392MG
HCC1937 = format: functional, cell-based, Homo sapiens; conditions: Homo sapiens, HCC1937;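 note: growth inhibition measured with a cell viability read-out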
Description: SANGER: Inhibition of human HCC1937 cell growth in a cell viability assay.

DBTRG-05MG = format: functional, cell-based, Homo sapiens; conditions: Homo sapiens, DBTRG-05MG;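 note: cell viability assay measuring growth inhibition of human DBTRG-05MG cells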
Description: SANGER: Inhibition of human DBTRG-05MG cell growth in a cell viability assay.

NCI-H446 = format: functional, cell-based; conditions: Homo sapiens;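 note: growth inhibition of NCI-H446 cells determined by a cell viability assay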
Description: SANGER: Inhibition of human NCI-H446 cell growth in a cell viability assay.

NKM-1 = format: functional, cell-based; conditions: Homo sapiens;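 note: growth inhibition of NKM-1 cells, read out with a cell viability assay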
MEL-HO = format: functional, cell-based, Homo sapiens; conditions: Homo sapiens, MEL-HO
Description: SANGER: Inhibition of human MEL-HO cell growth in a cell viability assay.

Measured: IC50

C[C@]1(O)C[C@@H](c2nc(-c3ccc4ccc(-c5ccccc5)nc4c3)c3c(N)nccn32)C1 [LINSITINIB]
> 2560 nM: RERF-LC-MS | Daoy | LB2241-RCC | EFM-19 | L-428 | LB996-RCC | KM-H2 | MDA-MB-361 | EGI-1 | KYSE-140 | OE33 | NCI-H1993 | BFTC-909 | NCI-H1304 | HLE | MMAC-SF | KP-4 | ESS-1 | HGC-27 | ATN-1 | K5 | MKN-45 | RCM-1 | SW13 | IST-MES1 | SNB-75 | NUGC-3 | DK-MG | DMS-114 | LB373-MEL-D | HT-1080 | RCC10RGB | MFH-ino | JEG-3 | SW48 | NCI-H2405 | LS-411N | Mo | C32 | CW-2 | SW1088 | IA-LM | KG-1 | D-392MG | HCC1937 | DBTRG-05MG | NCI-H446 | NKM-1 | MEL-HO
1260 nM: RD
1350 nM: EKVX

C=CCc1cccc(/C=N/NC(=O)CN2CCN(Cc3ccccc3)CC2)c1O [PAC-1]
1330 nM: L-428
1770 nM: MEL-HO
2080 nM: LS-411N
1950 nM: EFM-19
> 2560 nM: RERF-LC-MS | LB2241-RCC | LB996-RCC | KM-H2 | MDA-MB-361 | EGI-1 | KYSE-140 | OE33 | NCI-H1993 | BFTC-909 | NCI-H1304 | HLE | MMAC-SF | RD | KP-4 | ESS-1 | HGC-27 | ATN-1 | K5 | MKN-45 | EKVX | RCM-1 | SW13 | IST-MES1 | SNB-75 | NUGC-3 | DK-MG | DMS-114 | LB373-MEL-D | HT-1080 | RCC10RGB | MFH-ino | JEG-3 | SW48 | NCI-H2405 | Mo | C32 | CW-2 | SW1088 | IA-LM | KG-1 | D-392MG | HCC1937 | DBTRG-05MG | NCI-H446 | NKM-1
2190 nM: Daoy

Cc1ccc(Nc2nccc(N(C)c3ccc4c(C)n(C)nc4c3)n2)cc1S(N)(=O)=O [PAZOPANIB]
4780 nM: Daoy
6200 nM: HGC-27
718 nM: KG-1
7930 nM: IA-LM
> 8000 nM: RERF-LC-MS | LB2241-RCC | EFM-19 | L-428 | LB996-RCC | KM-H2 | MDA-MB-361 | EGI-1 | KYSE-140 | OE33 | NCI-H1993 | BFTC-909 | NCI-H1304 | MMAC-SF | RD | KP-4 | ATN-1 | K5 | MKN-45 | EKVX | RCM-1 | SW13 | IST-MES1 | NUGC-3 | DMS-114 | LB373-MEL-D | HT-1080 | RCC10RGB | MFH-ino | JEG-3 | SW48 | NCI-H2405 | LS-411N | Mo | C32 | CW-2 | SW1088 | D-392MG | HCC1937 | DBTRG-05MG | NCI-H446 | NKM-1 | MEL-HO
1600 nM: ESS-1
6570 nM: SNB-75
1640 nM: HLE
5720 nM: DK-MG

CN(c1ncccc1CNc1nc(Nc2ccc3c(c2)CC(=O)N3)ncc1C(F)(F)F)S(C)(=O)=O [PF-00562271]
1980 nM: MEL-HO
> 2560 nM: RERF-LC-MS | Daoy | LB2241-RCC | EFM-19 | L-428 | LB996-RCC | KM-H2 | MDA-MB-361 | EGI-1 | KYSE-140 | OE33 | NCI-H1993 | BFTC-909 | NCI-H1304 | HLE | MMAC-SF | RD | KP-4 | ESS-1 | HGC-27 | ATN-1 | K5 | MKN-45 | EKVX | RCM-1 | SW13 | IST-MES1 | SNB-75 | NUGC-3 | DK-MG | DMS-114 | LB373-MEL-D | HT-1080 | MFH-ino | JEG-3 | SW48 | NCI-H2405 | LS-411N | Mo | C32 | CW-2 | SW1088 | IA-LM | KG-1 | D-392MG | HCC1937 | DBTRG-05MG | NCI-H446
2330 nM: RCC10RGB
1280 nM: NKM-1

From ChEMBL document CHEMBL1201861, “Genomics of Drug Sensitity in Cancer screening data, Wellcome Trust Sanger Institute”
